melting point | SMILES
194 to 196 °C | O=C(O)c1nn(-c2ccccc2F)c2c1CCC2
103 to 105 °C | O=Cc1cncc2ccccc12
182 to 184 °C | Nc1cccc(-c2nnc[nH]2)c1
210 to 212 °C | Sc1nnc(Nc2cccc(Cl)c2)s1
144 to 146 °C | Nc1cc(-c2ccc(Br)o2)no1
140 to 147 °C | O=C(O)Cc1csc(-c2ccccn2)n1
62 to 64 °C | CCNC(=O)NC(=O)CN(C)Cc1ccccc1
220 to 222 °C | O=C(O)CC1=C(c2cccs2)N2CCN=C2S1
284 to 286 °C | CN(C)c1ccc(-c2cncc(C(=O)O)c2)cc1
163 to 165 °C | Cc1cccc(NC(=O)Nc2cccc(CN)c2)c1
187 to 189 °C | COc1ccc(C(=O)NC(C(=O)O)c2ccccc2)cc1 (configuration not stated)
180 to 182 °C | O=C(NC1CC1)c1cc([N+](=O)[O-])ccc1Cl
181 to 183 °C | Nc1nc2c(s1)CC(c1ccccc1)CC2 (configuration not stated)
196 to 198 °C | CS(=O)(=O)Nc1ccc(-c2csc(N)n2)cc1
181 to 183 °C | NC(=S)c1cnn(-c2ccccc2)c1
64 to 66 °C | Ic1ccc(OCCc2ccccc2)cc1
137 to 139 °C | CCc1ccc(OCc2nnc(S)n2Cc2ccccc2)cc1
299 to 301 °C | Cn1cc(C(=O)O)c(-c2ccc([N+](=O)[O-])cc2)n1
160 to 162 °C | CC1CCN(c2ccc([N+](=O)[O-])cc2C(=O)O)CC1
198 to 200 °C | Cc1ccc(OCc2nc(C(=O)O)cs2)cc1
78 to 80 °C | CC(c1nc(-c2ccc(Cl)cc2)no1)N1CCNCC1 (configuration not stated)
285 to 287 °C | O=C(O)c1cccc2[nH]ncc12
143 to 145 °C | Nc1ncc(-c2cccc(Cl)c2)s1
114 to 116 °C | NC(=NO)c1ccccc1CN1CCCCC1
167 to 169 °C | COc1ccccc1NS(=O)(=O)c1ccc(O)c(N)c1

melting point | SMILES
52 to 54 °C | CCOC(=O)c1sc2nc(CSc3ccccc3)nc(Cl)c2c1C
132 to 134 °C | CC(C(O)c1ccccc1)N(C)S(=O)(=O)c1ccc([N+](=O)[O-])cc1 (configuration not stated)
74 to 76 °C | Cc1ccc(C#N)c(N2CCCC2)n1
215 to 217 °C | O=C(O)c1ccc2c(c1)C(=O)N(CCc1ccccc1)C2=O
193 to 195 °C | CCc1cccc2c(C(=O)O)c[nH]c12
189 to 191 °C | ClC1=Nc2c(cnn2-c2ccccc2)CN1
156 to 158 °C | Clc1nnc(-c2ccccc2)c2ccccc12
115 to 117 °C | OCc1cn(-c2ccccc2)nc1-c1cccs1
249 to 251 °C | CN1CC(=O)Nc2ccccc2C1=O
188 to 190 °C | O=C(O)c1cc(N2CCCC2=O)cc(C(F)(F)F)c1
79 to 81 °C | Cc1cccc(-c2cc(N)n(Cc3ccccc3)n2)c1
144 to 146 °C | O=c1[nH]nnc2c1cnn2-c1ccccc1
205 to 207 °C | Nc1nc(-c2ccc3ccccc3c2)n[nH]1
87 to 89 °C | O=C(O)CCCc1ccccc1Br
149 to 151 °C | O=C1COc2ccccc2C(=O)N1
134 to 136 °C | NCc1nc(-c2ccsc2)no1
171 to 173 °C | O=C(O)c1nn(-c2ccccc2)c2c1CCCCC2
168 to 170 °C | O=C(CSc1ccccc1C(=O)O)NC1CCCCCCC1
211 to 213 °C | Cc1cccc2nc(CSc3ccccc3C(=O)O)cc(=O)n12
334 to 336 °C | Cc1cc(-c2nc3ccccc3n2C)c(=O)[nH]n1
260 to 262 °C | Nc1nnc(-c2ccccn2)s1
84 to 86 °C | Nc1ccccc1-n1cnnn1
103 to 105 °C | Clc1ccc(C2CC2)nn1
114 to 116 °C | COC(=O)CCCNc1nc2ccccc2s1

The remaining lines, values behind:

SMILES | melting point
CCCCCCOC(=O)c1ccc(N)cc1 | 59 to 61 °C
CCc1ccc(C(=O)O)cc1S(C)(=O)=O | 174 to 176 °C
CCCn1c(S)nnc1-c1ccncc1 | 258 to 260 °C
Cc1cccc(S(=O)(=O)Cl)c1Br | 56 to 58 °C
CC(=O)N1CCC(CCC(=O)O)CC1 | 119 to 121 °C
CC1CN(c2cc(N)cc(F)c2)CC(C)O1 (configuration not stated) | 80 to 82 °C
O=C(O)c1cc(F)cc(S(=O)(=O)Cl)c1 | 136 to 138 °C
Cc1cc(C=O)c(C)n1CC(C)C | 43 to 47 °C
Cc1cc(COc2ccc(C(=O)O)cc2Br)on1 | 209 to 211 °C
CCc1nc2sccc2c(=O)[nH]1 | 199 to 201 °C
CC1(c2ccc(O)cc2)NC(=O)NC1=O (configuration not stated) | 240 to 242 °C
NC(=O)NC1CC1 | 114 to 116 °C
Cc1cc(C)c(OCC(=O)O)c(C)c1 | 150 to 152 °C
CC(Sc1ccc(Cl)cc1)C(=O)O (configuration not stated) | 106 to 108 °C
NC(=O)c1ccc(C(=O)O)o1 | 286 to 288 °C
CS(=O)(=O)c1cccc(C(=O)Cl)c1 | 85 to 87 °C
NC(=O)NCC1CCCNC1 (configuration not stated) | 83 to 85 °C
Cc1n[nH]c(=O)c(C(=O)O)c1C | 179 to 181 °C
Cc1sc(=O)[nH]c1C(C)C | 129 to 131 °C
CN(C)C(=O)c1cccc(C#N)c1 | 87 to 89 °C
O=C1CCCC(C(=O)O)N1 (configuration not stated) | 94 to 96 °C
CCC1(C)NC(=O)NC1=O (configuration not stated) | 144 to 150 °C
Cn1cc(C(=O)O)ccc1=O | 236 to 238 °C
O=C(CCl)Nc1ccc(Oc2cccc(Cl)c2)cc1 | 117 to 119 °C
CC(C)(C)OC(=O)Nc1cccc(C(N)=NO)c1 | 168 to 170 °C
COc1cc(Cl)c(C(=O)CBr)cc1OC | 93 to 95 °C
COC(=O)N(C)c1ccc([N+](=O)[O-])cc1 | 108 to 110 °C

SMILES | melting point
CC(C)(C)OC(=O)Nc1cccc(O)c1 | 135 to 137 °C
NC(=O)c1ccc(I)cc1 | 216 to 218 °C
Cc1nn(C)c(C)c1C(=O)NC1(C(=O)O)CCCC1 | 235 to 237 °C
COCCOc1ccc(Cl)cc1C#N | 64 to 66 °C
CCOC(=O)C(=O)NN | 39 to 41 °C
CC(C)NC(=S)N(C)C | 73 to 75 °C
CC(C)(C)OC(=O)NCCNC(=O)C1CCCNC1 (configuration not stated) | 130 to 132 °C
O=C1COc2ccc(Br)cc21 | 111 to 113 °C
CC(C)Cc1nc(C(=O)O)cs1 | 104 to 106 °C
O=C(CN1CCNCC1)N1CCCCC1 | 83 to 85 °C
N#Cc1ccc2ncc(C=O)n2c1 | 184 to 186 °C
O=C(O)C1=NN(C2CCS(=O)(=O)C2)C(=O)CC1 (configuration not stated) | 138 to 140 °C
O=[N+]([O-])c1sccc1Br | 80 to 82 °C
Cn1cc(C(=O)NCC2CCNCC2)cn1 | 175 to 177 °C
CC(SCC(=O)Nc1ccc(Br)cc1)C(=O)O (configuration not stated) | 139 to 141 °C
N#Cc1cccc(NC(=O)CCl)c1 | 143 to 145 °C
O=C(Nc1ccc(F)cc1)N1CCC(=NO)CC1 | 183 to 185 °C
CC(=O)c1cc2cc(C)c(C)cc2o1 | 89 to 91 °C
COc1cccc(CNc2ccc(F)cc2)c1O | 76 to 78 °C
Cc1nn(CCO)c(C(F)F)c1C(=O)O | 148 to 150 °C
NNC1=NC(=O)C(=O)N1 | 144 to 146 °C
Cc1ccc(F)c(NC(=S)NN)c1 | 133 to 135 °C
Cn1cc(Br)nn1 | 99 to 101 °C
CC(C)CNC(=O)c1cc(Cl)ccc1N | 137 to 139 °C
NC1(C(=O)O)CCS(=O)(=O)CC1 | 294 to 296 °C
CC(C)(C)OC(=O)Nc1ccc(C=O)cn1 | 169 to 171 °C

— a melting point compilation (Tetko et al.)
